Measured values reported in patent US8633019B2, “Methods for treating spinal muscular atrophy” (PTC Therapeutics, Inc., priority 2008, dated 2014).

system: inclusion of exon 7 of SMN2 into mRNA transcribed from the SMN2-A minigene; experiment: Fold Activation: luciferase reporter, SMN2-A minigene construct versus SMN2-G minigene construct, in stably transfected HEK293H cells; type: cell-based, human; conditions: ratio of First Activation using the SMN2-A construct divided by Second Activation using the SMN2-G construct
Description: In a specific embodiment, the first cell and the second cell are the same cell type. In some embodiments, the first cell and the second cell are the same cell type and are obtained from the same source or clone. In some embodiments, the first reporter gene and the second reporter gene are the same reporter gene. In other embodiments, the first reporter gene and second reporter gene are different reporter genes. A compound that increases the inclusion of exon 7 of SMN2 into mRNA transcribed from the SMN2 gene will result in a Fold Activation derived from a higher ratio of the First Activation:
[formula] [formula] [formula] In some embodiments, both the amount and activity of the first and second fusion proteins are detected. Accordingly, as used herein, the Fold Activation for a compound that modulates the inclusion of exon 7 of SMN2 into mRNA transcribed from the SMN2 gene is a ratio of the First Activation divided by the Second Activation.
The HEK293H cell line stably transfected with the SMN2-A minigene construct was utilized in the HTS. HTS was performed by plating 10,000 cells in each well of a 384-well plate. Each 384-well plate contained 64 control wells used as an internal standard: 16 wells were used as a total control (no test compound, only compound solvent), 16 wells were used as reference standards representing background readings (high inhibitor concentration) and 32 wells were prepared to provide an 8-point dose response curve of puromycin as a non-specific standard control inhibitor. The remaining 320 wells contained individual test compounds. The cells were grown overnight in the presence of test compounds or controls at 37° C. in 5% CO2. After 24 hours, the amount of luminescence was determined using a ViewLux Imaging system (Perkin Elmer).
Using the SMN2-A minigene construct, a HTS was performed testing a compound library. The amount of the fusion protein expressed from the minigene construct was determined by measuring luciferase activity as described herein. […] Enhancers of fusion protein expression were defined as those compounds that increased luciferase activity by at least three standard deviations above the mean. Based on this analysis, test compounds of Formula (I) were identified as hits and were subsequently confirmed by testing the compounds under the same conditions as in the original HTS. To ensure that the increase in luciferase activity detected in the HTS was due to increased inclusion of exon 7 of SMN2 into mRNA transcripts from the SMN2-A minigene construct, each compound was tested in two different cell lines: the cell line, which was used in the original HTS (HEK293H containing the SMN2-A minigene construct), and a HEK293H cell line that contained the SMN2-G minigene construct.
Each compound was tested at four concentrations: 15 μM, 3 μM, 0.6 μM, 0.12 μM.
The Fold Activation results are provided as a ratio of a First Activation using the SMN-2A construct divided by a Second Activation using the SMN-2G construct, wherein 1 star (*) represents active compounds with a fold increase ratio between 1.1-1.3; 2 stars (**) represent active compounds with a fold increase ratio between 1.3-2.0; 3 stars (***) represent active compounds with a fold increase ratio greater than 2.0.

SMILES	Activity (Fold Activation)
Cc1ccc2nc(-c3cccc(C(=O)O)c3)oc2c1 [Cpd 2, 3-(6-methyl-benzooxazol-2-yl)-benzoic acid]	* (1 star (*) represents active compounds with a fold increase ratio between 1.1-1.3)
CC(C)(C)c1ccc2oc(-c3cccc(C(=O)O)c3)nc2c1 [Cpd 6, 3-(5-tert-butyl-benzooxazol-2-yl)-benzoic acid]	** (2 stars (**) represent active compounds with a fold increase ratio between 1.3-2.0)
O=C(O)c1cccc(-c2nc3ccc(Cn4ccnc4)cc3o2)c1 [Cpd 8, 3-(6-imidazol-1-ylmethyl-benzooxazol-2-yl)-benzoic acid]	** (2 stars (**) represent active compounds with a fold increase ratio between 1.3-2.0)
Cc1ccc2nc(-c3ccc(C(=O)O)cc3)oc2c1 [Cpd 11, 4-(6-methyl-benzooxazol-2-yl)-benzoic acid]	** (2 stars (**) represent active compounds with a fold increase ratio between 1.3-2.0)
O=C(O)c1ccc2nc(-c3ccc(-c4ccccc4)cc3)oc2c1 [Cpd 18, 2-biphenyl-4-yl-benzooxazole-6-carboxylic acid]	* (1 star (*) represents active compounds with a fold increase ratio between 1.1-1.3)
O=C(O)c1ccc2oc(-c3ccc(-c4ccccc4)cc3)nc2c1 [Cpd 19, 2-biphenyl-4-yl-benzooxazole-5-carboxylic acid]	** (2 stars (**) represent active compounds with a fold increase ratio between 1.3-2.0)
Cc1ccc2oc(-c3cccc(C(=O)O)c3)nc2c1 [Cpd 21, 3-(5-methyl-benzooxazol-2-yl)-benzoic acid]	*** (3 stars (***) represent active compounds with a fold increase ratio greater than 2.0)
CCC(C)(C)c1ccc2oc(-c3cccc(C(=O)O)c3)nc2c1 [Cpd 22, 3-[5-(1,1-dimethyl-propyl)-benzooxazol-2-yl]-benzoic acid]	** (2 stars (**) represent active compounds with a fold increase ratio between 1.3-2.0)
O=C(O)c1cccc(-c2nc3ccc(-c4ccccc4)cc3o2)c1 [Cpd 23, 3-(6-Phenyl-benzooxazol-2-yl)-benzoic acid]	* (1 star (*) represents active compounds with a fold increase ratio between 1.1-1.3)
CC(C)c1ccc(-c2nc3cc(C(=O)O)ccc3o2)cc1 [Cpd 24, 2-(4-isopropyl-phenyl)-benzooxazole-5-carboxylic acid]	*** (3 stars (***) represent active compounds with a fold increase ratio greater than 2.0)
O=C(O)c1ccc2oc(-c3ccc4c(c3)OCO4)nc2c1 [Cpd 26, 2-benzo[1,3]dioxol-5-yl-benzooxazole-5-carboxylic acid]	** (2 stars (**) represent active compounds with a fold increase ratio between 1.3-2.0)
O=C(O)c1ccc2oc(-c3ccc(N4CCCC4=O)cc3)nc2c1 [Cpd 28, 2-[4-(2-oxo-pyrrolidin-1-yl)-phenyl]-benzooxazole-5-carboxylic acid]	** (2 stars (**) represent active compounds with a fold increase ratio between 1.3-2.0)
O=C(O)c1cccc(-c2nc3cc(-c4ccc(OC(F)(F)F)cc4)ccc3o2)c1 [Cpd 29, 3-[5-(4-trifluoromethoxy-phenyl)-benzooxazol-2-yl]-benzoic acid]	** (2 stars (**) represent active compounds with a fold increase ratio between 1.3-2.0)
O=C(O)c1cccc(-c2nc3cc(-c4ccc(F)c(F)c4)ccc3o2)c1 [Cpd 30, 3-[5-(3,4-difluoro-phenyl)-benzooxazol-2-yl]-benzoic acid]	** (2 stars (**) represent active compounds with a fold increase ratio between 1.3-2.0)
O=C(O)c1cccc(-c2nc3cc(-c4cc5ccccc5o4)ccc3o2)c1 [Cpd 31, 3-(5-benzofuran-2-yl-benzooxazol-2-yl)-benzoic acid]	** (2 stars (**) represent active compounds with a fold increase ratio between 1.3-2.0)
COc1ccc2oc(-c3cccc(C(=O)O)c3)nc2c1 [Cpd 32, 3-(5-methoxy-benzooxazol-2-yl)-benzoic acid]	*** (3 stars (***) represent active compounds with a fold increase ratio greater than 2.0)

SMILES	Activity (Fold Activation)
O=C(O)c1ccc2oc(-c3ccc(Br)cc3)nc2c1 [Cpd 35, 2-(4-bromo-phenyl)-benzooxazole-5-carboxylic acid]	** (2 stars (**) represent active compounds with a fold increase ratio between 1.3-2.0)
CC(C)c1ccc(-c2ccc3oc(-c4cccc(C(=O)O)c4)nc3c2)cc1 [Cpd 36, 3-[5-(4-isopropyl-phenyl)-benzooxazol-2-yl]-benzoic acid]	** (2 stars (**) represent active compounds with a fold increase ratio between 1.3-2.0)
Cc1cc(C)cc(-c2ccc3oc(-c4cccc(C(=O)O)c4)nc3c2)c1 [Cpd 37, 3-[5-(3,5-dimethyl-phenyl)-benzooxazol-2-yl]-benzoic acid]	* (1 star (*) represents active compounds with a fold increase ratio between 1.1-1.3)
Cc1ccc(-c2nc3cc(C(=O)O)ccc3o2)cc1 [Cpd 38, 2-p-tolyl-benzooxazole-5-carboxylic acid]	*** (3 stars (***) represent active compounds with a fold increase ratio greater than 2.0)
COc1ccc(-c2nc3cc(C(=O)O)ccc3o2)cc1 [Cpd 39, 2-(4-methoxy-phenyl)-benzooxazole-5-carboxylic acid]	** (2 stars (**) represent active compounds with a fold increase ratio between 1.3-2.0)
O=C(O)c1cccc(-c2nc3ccc(N4CCCCC4)cc3o2)c1 [Cpd 41, 3-(6-piperidin-1-yl-benzooxazol-2-yl)-benzoic acid]	*** (3 stars (***) represent active compounds with a fold increase ratio greater than 2.0)
O=C(O)c1cccc(-c2nc3ccc(N4CCOCC4)cc3o2)c1 [Cpd 42, 3-(6-morpholin-4-yl-benzooxazol-2-yl)-benzoic acid]	** (2 stars (**) represent active compounds with a fold increase ratio between 1.3-2.0)
O=C(O)c1cccc(-c2nc3cc(N4CCCC4)ccc3o2)c1 [Cpd 43, 3-(5-pyrrolidin-1-yl-benzooxazol-2-yl)-benzoic acid]	** (2 stars (**) represent active compounds with a fold increase ratio between 1.3-2.0)
O=C(O)c1cccc(-c2nc3ccc(-n4cccn4)cc3o2)c1 [Cpd 44, 3-(6-pyrazol-1-yl-benzooxazol-2-yl)-benzoic acid]	** (2 stars (**) represent active compounds with a fold increase ratio between 1.3-2.0)
CN1CCN(c2ccc3nc(-c4cccc(C(=O)O)c4)oc3c2)CC1 [Cpd 48, 3-[6-(4-methyl-piperazin-1-yl)-benzooxazol-2-yl]-benzoic acid]	* (1 star (*) represents active compounds with a fold increase ratio between 1.1-1.3)
O=C(O)c1ccc2oc(-c3ccc(N4CCOCC4)cc3)nc2c1 [Cpd 51, 2-(4-morpholin-4-yl-phenyl)-benzooxazole-5-carboxylic acid]	** (2 stars (**) represent active compounds with a fold increase ratio between 1.3-2.0)
O=C(O)c1cccc(-c2nc3ccc(N4CCC4)cc3o2)c1 [Cpd 52, 3-(6-azetidin-1-yl-benzooxazol-2-yl)-benzoic acid]	** (2 stars (**) represent active compounds with a fold increase ratio between 1.3-2.0)
O=C(O)c1ccc2oc(-c3ccc(NCCCCl)cc3)nc2c1 [Cpd 54, 2-[4-(3-chloro-propylamino)-phenyl]-benzooxazole-5-carboxylic acid]	** (2 stars (**) represent active compounds with a fold increase ratio between 1.3-2.0)
O=C(O)c1ccc2oc(-c3ccc(F)cc3)nc2c1 [Cpd 55, 2-(4-fluoro-phenyl)-benzooxazole-5-carboxylic acid]	* (1 star (*) represents active compounds with a fold increase ratio between 1.1-1.3)
O=C(O)c1ccc2oc(-c3ccc(N4CCC4)cc3)nc2c1 [Cpd 57, 2-(4-azetidin-1-yl-phenyl)-benzooxazole-5-carboxylic acid]	** (2 stars (**) represent active compounds with a fold increase ratio between 1.3-2.0)
O=C(O)c1ccc2nc(-c3ccco3)oc2c1 [Cpd 65, 2-furan-2-yl-benzooxazole-6-carboxylic acid]	** (2 stars (**) represent active compounds with a fold increase ratio between 1.3-2.0)
